The values below come from ChEMBL document CHEMBL5665443, “Enzyme Inhibitor Single Concentration assay results for EUbOPEN Chemogenomics Library” (2024).

SMILES strings stand for the structures.

Assay [1] addresses T1, Endonuclease III-like protein 1 (Homo sapiens) (UniProt P78549).
T1 sequence (whole entry): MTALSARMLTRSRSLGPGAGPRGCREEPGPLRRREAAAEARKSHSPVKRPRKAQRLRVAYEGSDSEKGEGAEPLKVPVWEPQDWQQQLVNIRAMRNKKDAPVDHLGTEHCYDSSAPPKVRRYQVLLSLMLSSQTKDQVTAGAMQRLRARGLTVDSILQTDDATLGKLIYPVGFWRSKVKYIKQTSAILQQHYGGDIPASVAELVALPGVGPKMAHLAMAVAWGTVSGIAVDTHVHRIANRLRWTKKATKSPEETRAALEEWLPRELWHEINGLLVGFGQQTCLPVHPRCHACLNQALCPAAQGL
The settings on record: Hit No.
Description: Inhibition of NTHL1 by quantifying inhibition of NTHL1-mediated cleavage and dissociation of quenched duplex DNA oligonucleotides, measured as fluorescence at 594 nm.

The target of assay [2] is T2, Endonuclease 8-like 2 (Homo sapiens) (UniProt Q969S2).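 Also: fluorescence at 594 nm reports NEIL2 cutting and release of a quenched double-stranded DNA oligo substrate, reduced signal read as inhibition.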
T2 sequence (whole entry): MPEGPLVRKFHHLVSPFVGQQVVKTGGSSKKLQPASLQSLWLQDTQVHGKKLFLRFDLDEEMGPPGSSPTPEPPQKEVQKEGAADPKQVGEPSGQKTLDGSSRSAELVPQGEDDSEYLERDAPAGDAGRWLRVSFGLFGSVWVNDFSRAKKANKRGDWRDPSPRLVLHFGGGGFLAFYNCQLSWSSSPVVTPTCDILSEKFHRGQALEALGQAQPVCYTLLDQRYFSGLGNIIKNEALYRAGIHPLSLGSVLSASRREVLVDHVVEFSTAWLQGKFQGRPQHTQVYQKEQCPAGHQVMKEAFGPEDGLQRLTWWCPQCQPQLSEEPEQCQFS
The settings on record: Hit No.
Description: Inhibition of NEIL2 by quantifying inhibition of NEIL2-mediated cleavage and dissociation of quenched duplex DNA oligonucleotides, measured as fluorescence at 594 nm.

Assay [3] concerns the target Endonuclease 8-like 1 (Homo sapiens) (UniProt Q96FI4). The settings on record: Hit No.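 Also: fluorescence at 594 nm from quenched duplex DNA oligonucleotides released by NEIL1 cleavage and strand separation, reported as reduction of this enzyme activity.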
Description: Inhibition of NEIL1 by quantifying inhibition of NEIL1-mediated cleavage and dissociation of quenched duplex DNA oligonucleotides, measured as fluorescence at 594 nm.
In assay [4] the target is T3, Single-strand selective monofunctional uracil DNA glycosylase (Homo sapiens) (UniProt Q53HV7).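 Also: enzymatic SMUG1 assay coupled with APE1, reading fluorescence at 594 nm released when a quenched double-stranded DNA oligonucleotide substrate is cleaved and separated.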
T3 sequence (whole entry): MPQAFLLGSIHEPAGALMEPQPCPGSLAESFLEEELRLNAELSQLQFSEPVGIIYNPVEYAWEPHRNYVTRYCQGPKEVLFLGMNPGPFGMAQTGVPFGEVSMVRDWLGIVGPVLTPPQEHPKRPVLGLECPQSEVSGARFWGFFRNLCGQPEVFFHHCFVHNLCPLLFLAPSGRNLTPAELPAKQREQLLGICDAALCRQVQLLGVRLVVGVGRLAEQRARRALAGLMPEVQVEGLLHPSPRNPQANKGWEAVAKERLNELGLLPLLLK
The settings on record: Hit No.
Description: Inhibition of SMUG1 by quantifying inhibition of SMUG1-mediated cleavage and dissociation of quenched duplex DNA oligonucleotides, measured as fluorescence at 594 nm. To generate a functional strand incision and increase turn-over this assay is coupled to APE1.

In assay [5] the target is Uracil-DNA glycosylase (Homo sapiens) (UniProt P13051). The settings on record: Hit No.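 Also: UNG excision on a quenched double-stranded DNA oligo probe, with APE1 added for strand incision and turnover, read as fluorescence at 594 nm as strands separate.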
Description: Inhibition of UNG by quantifying inhibition of UNG-mediated cleavage and dissociation of quenched duplex DNA oligonucleotides, measured as fluorescence at 594 nm. To generate a functional strand incision and increase turn-over this assay is coupled to APE1.
Assay [6] addresses N-glycosylase/DNA lyase (Homo sapiens) (UniProt O15527). The settings on record: Hit No.
Description: Inhibition of OGG1 by quantifying inhibition of OGG1-mediated cleavage and dissociation of quenched duplex DNA oligonucleotides, measured as fluorescence at 594 nm. To generate a functional strand incision and increase turn-over this assay is coupled to APE1.
Assay [7] addresses G/T mismatch-specific thymine DNA glycosylase (Homo sapiens) (UniProt Q13569). The settings on record: Compound Concentration 10.0 uM, Hit No.
Description: Inhibition of TDG by quantifying inhibition of TDG-mediated cleavage and dissociation of quenched duplex DNA oligonucleotides, measured as fluorescence at 594 nm. To generate a functional strand incision and increase turn-over this assay is coupled to APE1.

Uracil-DNA glycosylase (Homo sapiens), sequence (P13051 whole entry): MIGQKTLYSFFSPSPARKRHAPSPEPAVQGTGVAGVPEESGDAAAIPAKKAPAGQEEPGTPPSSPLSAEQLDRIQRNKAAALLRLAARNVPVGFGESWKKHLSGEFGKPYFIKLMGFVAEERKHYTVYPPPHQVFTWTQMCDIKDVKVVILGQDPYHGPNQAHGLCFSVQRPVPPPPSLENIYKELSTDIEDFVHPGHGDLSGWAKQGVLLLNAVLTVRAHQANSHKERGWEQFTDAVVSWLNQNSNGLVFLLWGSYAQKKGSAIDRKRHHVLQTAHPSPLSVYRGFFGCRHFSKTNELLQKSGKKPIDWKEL
Endonuclease 8-like 1 (Homo sapiens), sequence (Q96FI4 whole entry): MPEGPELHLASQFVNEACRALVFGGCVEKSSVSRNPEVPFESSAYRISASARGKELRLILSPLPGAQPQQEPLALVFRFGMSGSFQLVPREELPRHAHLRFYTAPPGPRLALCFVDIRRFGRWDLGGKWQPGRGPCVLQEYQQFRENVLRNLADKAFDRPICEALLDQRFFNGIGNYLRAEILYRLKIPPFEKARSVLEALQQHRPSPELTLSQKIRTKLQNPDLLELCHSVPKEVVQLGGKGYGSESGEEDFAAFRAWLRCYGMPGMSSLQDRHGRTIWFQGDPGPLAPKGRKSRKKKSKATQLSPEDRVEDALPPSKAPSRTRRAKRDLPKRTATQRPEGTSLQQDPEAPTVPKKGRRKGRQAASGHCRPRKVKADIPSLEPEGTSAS
G/T mismatch-specific thymine DNA glycosylase (Homo sapiens), sequence (Q13569 whole entry): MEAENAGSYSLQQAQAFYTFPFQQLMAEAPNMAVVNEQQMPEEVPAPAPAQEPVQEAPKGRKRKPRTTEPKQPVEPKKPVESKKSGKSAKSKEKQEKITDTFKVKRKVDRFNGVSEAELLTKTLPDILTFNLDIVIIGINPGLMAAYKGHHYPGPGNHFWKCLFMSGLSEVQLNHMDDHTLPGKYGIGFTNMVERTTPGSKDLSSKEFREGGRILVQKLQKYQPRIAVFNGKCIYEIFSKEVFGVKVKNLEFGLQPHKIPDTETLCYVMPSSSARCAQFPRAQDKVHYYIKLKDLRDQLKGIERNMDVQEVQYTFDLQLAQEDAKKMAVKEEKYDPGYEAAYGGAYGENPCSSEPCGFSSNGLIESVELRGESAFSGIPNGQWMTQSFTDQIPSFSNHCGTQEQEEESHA
N-glycosylase/DNA lyase (Homo sapiens), sequence (O15527 whole entry): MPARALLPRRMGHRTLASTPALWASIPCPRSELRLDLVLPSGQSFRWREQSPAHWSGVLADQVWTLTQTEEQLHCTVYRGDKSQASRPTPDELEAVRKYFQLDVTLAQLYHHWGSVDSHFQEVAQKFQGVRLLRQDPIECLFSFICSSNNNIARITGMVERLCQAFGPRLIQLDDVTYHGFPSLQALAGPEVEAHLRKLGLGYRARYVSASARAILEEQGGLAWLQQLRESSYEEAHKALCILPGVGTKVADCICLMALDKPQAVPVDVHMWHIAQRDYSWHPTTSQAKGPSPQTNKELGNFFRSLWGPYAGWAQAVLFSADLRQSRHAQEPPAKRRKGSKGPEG

For the molecule `O=C(N[C@H](Cc1ccc(Cl)cc1)C(=O)N1CCC(Cn2cncn2)(C2CCCCC2)CC1)[C@H]1Cc2ccccc2CN1`, the inhibition in assay [1] (Compound Concentration 10.0 uM) was -6.04%; in assay [2] (Compound Concentration 10.0 uM), 0.159%; in assay [3] (Compound Concentration 10.0 uM), 5.49%; in assay [4] (Compound Concentration 10.0 uM) it was 10.8%; in assay [5] (Compound Concentration 10.0 uM) it was -1.71%; in assay [6] (Compound Concentration 10.0 uM), 6.85%.

For `Cc1c(C(=O)Nc2cccc(C(F)(F)F)c2)cc(-c2ccccc2)n1CCCN1CCOCC1`, the inhibition in assay [1] (Compound Concentration 10.0 uM) is -7.69%; in assay [3] (Compound Concentration 10.0 uM), 0.00926%; in assay [4] (Compound Concentration 10.0 uM), 6.03%; in assay [5] (Compound Concentration 10.0 uM), -3.84%; in assay [6] (Compound Concentration 10.0 uM), -6.32%.

For `C=CCN1C[C@H](C)N([C@H](c2ccc(C(=O)N(CC)CC)cc2)c2cccc(O)c2)C[C@H]1C`, the inhibition was 1.92% in assay [1] (Compound Concentration 10.0 uM); 6.25% in assay [2] (Compound Concentration 10.0 uM); -6.58% in assay [3] (Compound Concentration 10.0 uM); 10.6% in assay [4] (Compound Concentration 10.0 uM); 4.87% in assay [7]; -6.71% in assay [6] (Compound Concentration 10.0 uM).

As for `FC(F)c1nc2ccccc2n1-c1nc(N2CCOCC2)nc(N2CCOCC2)n1`, the inhibition was 7.06% in assay [1] (Compound Concentration 10.0 uM); 27% in assay [4] (Compound Concentration 10.0 uM); -3.48% in assay [5] (Compound Concentration 10.0 uM); 32.9% in assay [7]; 3.08% in assay [6] (Compound Concentration 10.0 uM).

Regarding `c1cc(CN2CCCNCCNCCCNCC2)ccc1CN1CCCNCCNCCCNCC1`, the inhibition in assay [1] (Compound Concentration 10.0 uM) is 13.7%; in assay [4] (Compound Concentration 10.0 uM), 1.47%; in assay [7], 2.03%; in assay [6] (Compound Concentration 10.0 uM), -2.11%.

Take `O=C1COc2nccc(-c3ccccc3F)c2CN1Cc1cc(C(F)(F)F)cc(C(F)(F)F)c1`: the inhibition was 2.66% in assay [1] (Compound Concentration 10.0 uM); -2.98% in assay [2] (Compound Concentration 10.0 uM); 2.76% in assay [3] (Compound Concentration 10.0 uM); -3.96% in assay [4] (Compound Concentration 10.0 uM); -4.66% in assay [6] (Compound Concentration 10.0 uM).

For `Cn1cc(C2=C(c3cn(C4CCN(Cc5ccccn5)CC4)c4ccccc34)C(=O)NC2=O)c2ccccc21`, the inhibition in assay [1] (Compound Concentration 1.0 uM) is 2.88%; in assay [2] (Compound Concentration 1.0 uM), -6.23%; in assay [3] (Compound Concentration 1.0 uM), -7.52%; in assay [4] (Compound Concentration 1.0 uM), 6.08%; in assay [5] (Compound Concentration 1.0 uM), -3.81%; in assay [6] (Compound Concentration 1.0 uM), -2.56%.

For `CCN1CCC[C@H]1CNC(=O)c1c(OC)ccc(Br)c1OC`, the inhibition in assay [1] (Compound Concentration 10.0 uM) was -4.67%; in assay [2] (Compound Concentration 10.0 uM) it was -5.97%; in assay [3] (Compound Concentration 10.0 uM), -9.25%; in assay [4] (Compound Concentration 10.0 uM), -6.28%; in assay [7] it was -0.58%; in assay [6] (Compound Concentration 10.0 uM), -3.96%.

For `CCCn1c(=O)c2[nH]c(C3CCCC3)nc2n(CCC)c1=O`, the inhibition is -3.21% in assay [1] (Compound Concentration 10.0 uM); 1.01% in assay [2] (Compound Concentration 10.0 uM); -2.28% in assay [3] (Compound Concentration 10.0 uM); -9.38% in assay [4] (Compound Concentration 10.0 uM); 6.69% in assay [7]; -9.82% in assay [6] (Compound Concentration 10.0 uM).

On to `N=C(N)NCCC[C@@H](NC(=O)C(c1ccccc1)c1ccccc1)C(=O)NCc1ccc(CNC(N)=O)cc1`, for which the inhibition in assay [1] (Compound Concentration 10.0 uM) is 11.3%; in assay [2] (Compound Concentration 10.0 uM), -2.13%; in assay [3] (Compound Concentration 10.0 uM), 11.1%; in assay [4] (Compound Concentration 10.0 uM) it was 0.0989%; in assay [5] (Compound Concentration 10.0 uM), -1.81%; in assay [6] (Compound Concentration 10.0 uM), -4.9%.

For `CN1C(=O)[C@@H](NC(=O)c2cc3ccccc3[nH]2)N=C(c2ccccc2)c2ccccc21`, the inhibition was 22.4% in assay [1] (Compound Concentration 10.0 uM); -0.954% in assay [4] (Compound Concentration 10.0 uM); -5.09% in assay [5] (Compound Concentration 10.0 uM); 4.69% in assay [7]; -4.56% in assay [6] (Compound Concentration 10.0 uM).

With `Cc1c(C(=O)Nc2ccc(N3C[C@@H](C)O[C@@H](C)C3)nc2)cccc1-c1ccc(OC(F)(F)F)cc1`, the inhibition in assay [1] (Compound Concentration 10.0 uM) was -3.21%; in assay [2] (Compound Concentration 10.0 uM), 7.5%; in assay [3] (Compound Concentration 10.0 uM), -5.39%; in assay [4] (Compound Concentration 10.0 uM), -0.0333%; in assay [7], -4.8%; in assay [6] (Compound Concentration 10.0 uM) it was -6.4%.

In the case of `Cc1ccc(F)cc1C(=O)Nc1ccc(C(=O)N2Cc3cccn3Cc3ccccc32)c(Cl)c1`, the inhibition in assay [1] (Compound Concentration 10.0 uM) is 18.1%; in assay [2] (Compound Concentration 10.0 uM), -4.48%; in assay [3] (Compound Concentration 10.0 uM) it was -2.72%; in assay [4] (Compound Concentration 10.0 uM), -2.41%; in assay [7], -0.756%; in assay [6] (Compound Concentration 10.0 uM) it was -6.45%.
